In patent US10961279B2 (priority 2011, dated 2021):

Tested on: CTLL-2 cells
Format: cell-based

| Sequence | effect of the dimeric peptides on proliferation of CTLL-2 cells (synthesis of new DNA) |
| --- | --- |
| GLFAGFIENGWEGCGGEKEKEK [non-IS #2] | no significant effect |
| GLFGAAGFIENGWEGCGGEKEKEK [non-IS #1] | much less |
